Values after ≈ are worked out from the molar mass of the structure shown. Values joined by “and” are separate entries in the source; they are usually repeats but may differ in a detail not shown here. Equal entries are not always repeated. “Also recorded” adds a separate entry of the source. Structures can show the parent of a compound that is named as a salt. Where two headings read alike, the source gives them in different places.

In data set [1] the test system is A. hydrophila. The data set can be described thus: Antimicrobial susceptibility test, MIC by microdilution. Format: cell-based, Aeromonas hydrophila. The note with it: for MIC: Aeromonas hydrophila, read-out: MIC against A.hydrophila; for growth inhibition of A. hydrophila, in words: screen for antimicrobial activity. How it is done: (§1) A. hydrophila was cultured for 18 h, washed with PBS (pH 7.2), and adjusted to an OD600 value of 0.5. Next, the culture was diluted tenfold five times, and aliquots were spread on LB agar in triplicate to determine the number of colony-forming units (CFU)/ml.
(§2) The minimum inhibitory concentration (MIC) of the chemical compounds against A. hydrophila was determined using the microdilution method in accordance with the guidelines of the Clinical and Laboratory Standards Institute, document M31-A3 [16], following the method described by Dal Pozzo et al.. Compounds were diluted in DMSO at concentrations of 80, 40, 20, or 10 μg/ml. Appropriate controls were included in all tests. DCS is a naturally occurring antibacterial compound that targets alanine racemase involved in peptidoglycan synthesis. DCS was used as a positive control ([…]), DMSO solvent was used as a negative control for growth inhibition and DMSO alone was used as the blank control. All tests were performed in triplicate. The inoculum was prepared in LB culture medium (1 × 10^8 CFU/ml; OD600 = 0.3) and cultured at 30 °C/20 h. The inoculum (100 μl; 1 × 10^5 CFU) was added to each well containing compounds. The microplates were incubated at 30 °C for 20 h.

Data set [2] concerns HeLa cells. Format: cell-based. The note with it: for cytotoxicity, in words: MTT assay, HeLa / mammalian cells; for TC50, cytotoxicity in HeLa cells: MTT, 48 h exposure, average values with standard deviations, NC: non calculable as the values are too high. How it is done: This assay was performed in a 96-well plate format and used HeLa cells. The cell viability was determined using 3-(4,5-dimethyl-2-thiazole)-2,5-diphenyl-2H-tetrazolium bromide (MTT, Sigma-Aldrich). Cells were seeded in culture medium in microplates (4000 cells/well) and incubated at 37 °C for 24 h before drug treatments. […] The cells were exposed to the compounds for 48 h. At the end of the incubation, the cells were exposed to MTT (0.5 mg/ml) at 37 °C for 4 h. The reduced crystals were dissolved in DMSO, and absorbance was detected at 490 nm. The […] were set as zero absorbance. The percentage of cell survival was calculated using the background-corrected absorbance as follows: Cell survival (%) = (ODexperiment/ODcontrol) × 100. The data represent the mean and standard deviation from triplicate determination.

The target of data set [3] is D-amino acid oxidase (DAAO) and horseradish peroxidase (HRP). Put plainly: Assay interference counter screen (second step of the assay). Format: biochemical. The note with it: for IC50: DAAO/HRP reaction, 10 μM D-ala as substrate, read-out: IC50 on the enzymes in the second step (counter screen); for inhibition of second-step enzymes / assay interference, in words: HRP and DAAO, within a concentration of 50 μM. How it is done: To eliminate the inhibitory effects of the compounds on DAAO and HRP, a counter screening assay was performed as described above. The first-step assay mixtures without alanine racemase and L-alanine were added to each test well, followed by the addition of a twofold dilution series (in DMSO) of the inhibitors to the sample test wells, and finally, the addition of DMSO to the blank control wells. Then, DMSO was added to each well to obtain reaction mixtures at a final volume of 100 μl.
Second, the D-amino acid oxidase reaction mixture was prepared using 10 μM D-ala as the substrate. The control and control blank for the enzyme assay was prepared with or without 10 μM D-ala and absorbance was measured at 550 nm.
In general terms: The purpose of a counterscreen is to sort out artefacts and off-target activity.

Data set [4] concerns the target T1, alanine racemase Alr-2 (Aeromonas hydrophila, UniProt A0KL98). Put plainly: biochemical. How it is done:
Alanine racemase activity was measured at room temperature in the L → D direction using a spectrophotometric assay. The assay was modified by varying the volume to 100 μl and dividing it into two steps (Fig. 1).
The first step (F1) is the production of the D-form amino acids. The optimized enzyme assay reaction mixture consisted of 10 μM PLP, 12.5 mM of NaHCO3-NaOH buffer (pH 11), and 50 mM L-alanine and alanine racemase. A total of 100 μl of this reaction mixture was added to the wells of a 96-well plate. After incubation at 35 °C for 10 min, the reaction was terminated by adding 12.5 μl of 2 M HCl, and the incubation was continued for 2 min on ice. The reaction mixture was centrifuged at 10,000 RPM, for 10 min at 4 °C, and 10 μl of 2 M NaOH was added to neutralize the reaction mixture. The second step (F2) is the conversion of D-alanine to α-keto acids using D-amino acid oxidase (DAAO). The formation of H2O2 from this reaction can be quantified using horseradish peroxidase (HRP) at 550 nm. The DAAO reaction mixture contained 200 mM of Tris-HCl (pH 8.0), 0.1 mg/ml 4-aminoantipyrine (AAP), 0.1 mg/ml N-ethyl-N-(2-hydroxy-3-sulfopropyl)-m-toluidine sodium salt (TOOS), 2 units of HRP, 0.1 unit of DAAO and D-form amino acid solution in a final volume of 100 μl. The negative control for the enzyme assay was prepared using the same procedure but without enzyme. After incubating at 37 °C for 30 min, the absorbance was measured at 550 nm using a Spectra MAX 190 microplate reader (Molecular Devices Corp., USA). One unit (U) of enzyme was defined as the amount of purified enzyme that catalyzed the formation of 1 μmol of D-alanine from L-alanine per minute.
Each well (sample, control, and their blanks) contained the screening assay reaction mixture of 10 μM PLP and 12.5 mM NaHCO3-NaOH buffer (pH 11). Next, 4 μl of test substance (small molecular compounds or natural product extracts) was added to the sample and sample blank test tubes. Finally, […] alanine racemase was added to the sample and control test tubes while the same volume of DMSO was added to the sample blank and control blank test tubes. After incubation at 4 °C for 30 min, 50 mM L-alanine was added to the sample and control test wells while DMSO was added to the sample blank and control blank test wells to obtain a final volume of 100 μl. The control and control blank were defined as 100% and 0% of enzyme activity. The reaction was then carried out as described for the alanine racemase assay. The assay is divided into two steps: absorbance was measured at 550 nm at the end of the first (F1), and second (F2) steps and ΔF was defined as F2-F1. Inhibition activity was calculated from the following equation.
Fourfold dilution series (in DMSO) were prepared for all the compounds, and the solutions were added to the wells of a 96-well plate to yield the final inhibitory concentrations. Each concentration was tested in triplicate. The substrate was added after incubation for 30 min, and the fluorescence intensity was measured after the reaction. The positive control (D-cycloserine, DCS) was diluted in DMSO, and the negative control was prepared without adding an inhibitor to the control wells of each plate. Percentage inhibition at each inhibitor concentration was calculated with respect to the negative control. The results were analyzed using the SPSS 16.0 IBM modeler to calculate the compound concentration that causes 50% inhibition (IC50).

Data set [5] has as its target T1, alanine racemase Alr-2. The data set can be described thus: Kinetics of alanine racemase inhibition (Lineweaver-Burk). Format: biochemical. The note with it: for Ki: Lineweaver-Burk analysis, read-out: inhibition constant Ki; for type (mode) of inhibition: Lineweaver-Burk profile. How it is done:
The mode of inhibition of the enzyme by the compounds was determined as follows. The experiment was composed of three sets of reactions in which each set consisted of four concentrations of substrate in the presence of fixed amounts of alanine racemase, and three different concentrations of inhibitors were used. For homogentisic acid and hydroquinone, 0, 0.02 and 0.04 mg/ml were used. The reactions were made as described. The amount of product was determined spectrophotometrically and subsequently the standard curve was used to obtain reaction velocities. A double reciprocal plot (1/V versus 1/[S]), where V is reaction velocity and [S] is substrate concentration, was plotted. The type (mode) of inhibition of enzyme activity by the compounds was determined by analysis of the double reciprocal (Lineweaver-Burk) plot using Michaelis-Menten kinetics. The inhibition constant (K i) of the inhibitors was determined.

The subject of data set [6] is A. hydrophila Δalr-2. Format: cell-based, Aeromonas hydrophila. To be noted: for MIC against A.hydrophila Δalr-2: average values with standard deviations in parentheses, NC: non calculable as the values are too high. As to the method: A. hydrophila HBNUAh01 isolated from infected Paralichthys olivaceus and an A. hydrophila alr-2 knockout mutant were used in this study. Escherichia coli BL-21(DE3) cells were used for protein expression. The pET-25b-alr2 plasmid was used for protein expression. The A. hydrophila and E. coli strains were cultured in Luria-Bertani (LB) medium at 30 °C and 37 °C, respectively. For plasmid selection, 0.5 mmol/l ampicillin (AMP, Sigma–Aldrich Inc., USA) was added to the LB medium for experiments with E. coli.
as §1, §2

The test system of data set [7] is Caco-2 cells. Also noted: method as in PMID 22146584. To be noted: cited from earlier work.
[8] abbreviates: average values with standard deviations in parentheses, NC: non calculable as the values are too high.
The mark [9] stands for this setting: average values with standard deviations in parentheses, read-out: IC50 against Alr-2 with PLP.

T1 sequence (A0KL98 entry or part of it): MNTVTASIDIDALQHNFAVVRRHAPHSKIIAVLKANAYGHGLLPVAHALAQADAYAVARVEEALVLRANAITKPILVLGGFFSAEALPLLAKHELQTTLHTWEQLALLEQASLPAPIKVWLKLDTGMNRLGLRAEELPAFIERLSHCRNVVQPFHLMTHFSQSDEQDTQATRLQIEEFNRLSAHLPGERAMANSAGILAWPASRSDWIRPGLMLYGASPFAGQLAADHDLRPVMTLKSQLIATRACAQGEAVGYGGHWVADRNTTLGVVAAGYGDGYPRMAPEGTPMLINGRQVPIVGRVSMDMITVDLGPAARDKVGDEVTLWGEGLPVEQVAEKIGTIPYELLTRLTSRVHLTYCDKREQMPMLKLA

Take `Oc1ccc(O)cc1` [Compound I-6, Hydroquinone]: the MIC in data set [1] (setting [8]) is 80 µg/mL (≈ 727 µM). Further, in data set [1], the “growth inhibition of A. hydrophila, in words” value (“growth inhibition” below) is “inhibit the growth of A. hydrophila significantly”. In addition, in data set [2], the “cytotoxicity, in words” value was “minimal cytotoxicity”; the “TC50, cytotoxicity in HeLa cells” value was 122.9 μg/ml and 122.9(8.9) μg/ml. Also, in data set [3], the IC50 was 113 µM and the “inhibition of second-step enzymes / assay interference, in words” value is given as “No assay interference”. The same compound came in with a 50% inhibitory concentration (IC50) in data set [4] of 18.5 µM. Further, in data set [5], the Ki stood at 212 µM and the “type (mode) of inhibition” value is reported as “noncompetitive inhibitor; also recorded: noncompetitive type of inhibition”. The “MIC against A.hydrophila Δalr-2” value in data set [6] is on record as 140(2.4) μg/ml.
In data set [4], `O=c1c(O)c(-c2ccc(O)c(O)c2)oc2cc(O)cc(O)c12` [Compound I-10, Quercetin] had an IC50 of 15.5 µM.
Turning to `CCCOC(=O)c1cc(O)c(O)c(O)c1` [Compound I-5, Propyl Gallate], the IC50 in data set [4] (setting [9]) was 8.6 µM.
For Anabellamide [Compound I-1], the IC50 in data set [4] (setting [9]) was 6.6 µM.
For `N[C@@H]1CON=C1O` [DCS, D-cycloserine, reference compound], in data set [1] (setting [8]), the MIC is 25 µg/mL (≈ 245 µM). For the same compound, the “TC50, cytotoxicity in HeLa cells” value in data set [2] is 149.6 μg/ml and 149.6(5.9) μg/ml. In addition, the 50% inhibitory concentration (IC50) in data set [4] (setting [9]) came to 5.4 µM. Besides, the “MIC against A.hydrophila Δalr-2” value in data set [6] is on record as 50(2.9) μg/ml.
On to `O=C1C=C2C(=CCOC2O)O1` (centres unmarked) [Compound I-2, Patulin], for which, in data set [1], the minimum inhibitory concentration (MIC) is 20 µg/mL (≈ 130 µM) and the “growth inhibition” value was “inhibit the growth of A. hydrophila significantly”. Besides, the “IC50 against Caco-2 cells” value in data set [7] is 0.62 µg/mL (≈ 4.02 µM). In data set [3], the “inhibition of second-step enzymes / assay interference, in words” value is listed as “weak inhibition”. Further, the “inhibition of second-step enzymes / assay interference, in words” value in data set [3] (listed as patulin) is reported as “No assay interference”. For the same compound, the IC50 in data set [4] was 14.7 µM. In addition, the “MIC against A.hydrophila Δalr-2” value in data set [6] was 80(3.96) μg/ml.
For the compound `O=C(O)CCc1ccccc1Nc1c2ccccc2nc2ccccc12` [Compound I-7, Benzenepropanoic acid,2-(9-acridinylamino)-monohydrochloride], the IC50 in data set [4] (setting [9]) is 17.7 µM.
Still for that read-out and setting: for `CCCCC1(C)C=CC(=C2C(=O)OC(=CC(=O)O)C2=O)O1` (centres unmarked) [Compound I-4, Acetic acid,[4-(5-butyl-5-methyl-2(5H)-furanylidene)dihydro −3,5-dioxo-2(3H)-furanylidene]-(9CI)] the value was 8.9 µM.
Compound `Oc1ccc(CC2NCCc3cc(O)c(O)cc32)cc1` (centres unmarked) [Compound I-9, Higenamine] came in with an IC50 in data set [4] of 14.3 µM.
For the compound `Oc1cc2c(cc1O)C1c3ccc(O)c(O)c3OCC1(O)C2` (centres unmarked) [Compound I-8, Haematoxylin], the IC50 in data set [4] (setting [9]) turned out to be 15.6 µM.
With `O=C(O)Cc1cc(O)ccc1O` [Compound I-3, Homogentisic acid], the MIC in data set [1] (setting [8]) is 120 µg/mL (≈ 714 µM). Besides, the “growth inhibition” value in data set [1] is “inhibit the growth of A. hydrophila significantly”. In addition, in data set [2], the “cytotoxicity, in words” value is “minimal cytotoxicity”; the “TC50, cytotoxicity in HeLa cells” value is 157.7 μg/ml and 157.7(6.1) μg/ml. In data set [3], the IC50 came out at 96.1 µM and the “inhibition of second-step enzymes / assay interference, in words” value is given as “No assay interference”. The same compound had an IC50 in data set [4] of 12.5 µM. In data set [5], the Ki was determined as 51.7 µM and the “type (mode) of inhibition” value is “competitive type of inhibition”. Moreover, the “antimicrobial activity against A. hydrophila Δalr-2, in words” value in data set [6] is reported as “no antimicrobial activity”.

As a reminder, the MIC is the least concentration at which growth counts as inhibited. The term IC50 denotes the concentration needed to halve the response being measured. By Ki is commonly meant the dissociation constant of the complex between target and ligand, obtained from inhibition or displacement.

These data come from PMC5445283, “Selection and characterization of alanine racemase inhibitors against Aeromonas hydrophila” (BMC Microbiology, 2017).
